According to patent US20180320217A1, “METHODS FOR SAMPLING AND MEASURING ORAL LAVAGE PROTEINS” (The Procter & Gamble Company, priority 2017, published 2018):
Structures can show the parent of a compound that is named as a salt.

Columns and labels:
[1] = tested on: Malate dehydrogenase and diaphorase; test: Formation of formazan dyes: Malate dehydrogenase and diaphorase, absence of malate (TABLE 9); type: biochemical, pig heart
Malate dehydrogenase = biological target: T1, Malate dehydrogenase (Sus scrofa, UniProt P00346); test: Formation of formazan dyes: Malate dehydrogenase, malate and 1-Methoxy PMS (TABLE 18); type: biochemical, pig heart; design: L-malate dehydrogenase (pig heart); purchased Sigma-Aldrich 10127248001 / 10127914001; details: Malate dehydrogenase, malate and 1-Methoxy PMS, mean of three experiments
T1 sequence (P00346 25-338): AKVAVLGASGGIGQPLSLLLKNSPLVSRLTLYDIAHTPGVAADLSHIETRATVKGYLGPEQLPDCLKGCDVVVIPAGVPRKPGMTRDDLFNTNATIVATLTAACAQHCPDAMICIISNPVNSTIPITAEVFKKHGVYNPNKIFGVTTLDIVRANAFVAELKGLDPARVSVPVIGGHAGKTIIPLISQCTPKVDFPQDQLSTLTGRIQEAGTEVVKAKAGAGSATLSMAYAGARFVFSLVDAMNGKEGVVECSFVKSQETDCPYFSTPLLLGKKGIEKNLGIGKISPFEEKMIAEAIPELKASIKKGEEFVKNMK

[2] = Formation of formazan dyes: control buffer and 1-Methoxy PMS, absence of malate (TABLE 21); type: biochemical; details: for Absorbance, formation of formazan dyes (Means): control buffer and 1-Methoxy PMS, absence of malate, mean of three experiments
oral lavage = test: Formation of formazan dyes: oral lavage and diaphorase, not malate (TABLE 11); type: biochemical, human
[3] = Formation of formazan dyes: NADH, malate and 1-methoxy PMS (TABLE 16); type: biochemical; details: NADH, malate and 1-methoxy PMS, mean of three experiments

Formation of formazan dyes, absorbance, Means 0 h ([1]; Malate dehydrogenase and diaphorase, absence of malate, 0 h): 0.17
Formation of formazan dyes, absorbance, Means 1 h ([1]; Malate dehydrogenase and diaphorase, absence of malate, 1 h): 0.24
Formation of formazan dyes, absorbance, Means 2 h ([1]; Malate dehydrogenase and diaphorase, absence of malate, 2 h): 0.22
Formation of formazan dyes, absorbance, Means 3 h ([1]; Malate dehydrogenase and diaphorase, absence of malate, 3 h): 0.25
Formation of formazan dyes, absorbance, Means 4 h ([1]; Malate dehydrogenase and diaphorase, absence of malate, 4 h): 0.21
Formation of formazan dyes, absorbance, Means 6 h ([1]; Malate dehydrogenase and diaphorase, absence of malate, 6 h): 0.22
Formation of formazan dyes, absorbance, Means 8 h ([1]; Malate dehydrogenase and diaphorase, absence of malate, 8 h): 0.23
Formation of formazan dyes, absorbance, Means 10 h ([1]; Malate dehydrogenase and diaphorase, absence of malate, 10 h): 0.26
Formation of formazan dyes, absorbance, Means 12 h ([1]; Malate dehydrogenase and diaphorase, absence of malate, 12 h): 0.25
reduction of tetrazolium dye in the absence of substrate malate ([1]; malate dehydrogenase and diaphorase (TABLE 9)): remained largely in oxidized forms
Absorbance, formation of formazan dyes (Means) (Malate dehydrogenase; 0 h): 2.40
Absorbance, formation of formazan dyes (Means) (Malate dehydrogenase; 1 h): 3.33
Absorbance, formation of formazan dyes (Means) (Malate dehydrogenase; 2 h): 3.42
Absorbance, formation of formazan dyes (Means) (Malate dehydrogenase; 3 h): 3.38
Absorbance, formation of formazan dyes (Means) (Malate dehydrogenase; 4 h): 3.38
Absorbance, formation of formazan dyes (Means) (Malate dehydrogenase; 6 h): 3.27
Absorbance, formation of formazan dyes (Means) (Malate dehydrogenase; 8 h): 3.26
Absorbance, formation of formazan dyes (Means) (Malate dehydrogenase; 10 h): 3.18
Absorbance, formation of formazan dyes (Means) (Malate dehydrogenase; 12 h): 3.09
Formation of formazan dyes, absorbance, Means 0 h (oral lavage; oral lavage and diaphorase, not malate, 0 h): 0.70
Formation of formazan dyes, absorbance, Means 1 h (oral lavage; oral lavage and diaphorase, not malate, 1 h): 0.86
Formation of formazan dyes, absorbance, Means 2 h (oral lavage; oral lavage and diaphorase, not malate, 2 h): 0.91
Formation of formazan dyes, absorbance, Means 3 h (oral lavage; oral lavage and diaphorase, not malate, 3 h): 1.00
Formation of formazan dyes, absorbance, Means 4 h (oral lavage; oral lavage and diaphorase, not malate, 4 h): 1.13
Formation of formazan dyes, absorbance, Means 6 h (oral lavage; oral lavage and diaphorase, not malate, 6 h): 1.18
Formation of formazan dyes, absorbance, Means 8 h (oral lavage; oral lavage and diaphorase, not malate, 8 h): 1.21
Formation of formazan dyes, absorbance, Means 10 h (oral lavage; oral lavage and diaphorase, not malate, 10 h): 1.25
Formation of formazan dyes, absorbance, Means 12 h (oral lavage; oral lavage and diaphorase, not malate, 12 h): 1.27
Structure (SMILES): Cc1nc(-[n+]2nc(-c3cccc(OCC(=O)O)c3)nn2-c2ccc(S(=O)(=O)[O-])cc2)sc1C [MTS, 3-(4,5-dimethylthiazol-2-yl)-5-(3-carboxymethoxyphenyl)-2-(4-sulfophenyl)-2H-tetrazolium, inner salt]
Absorbance, formation of formazan dyes (Means) ([2]; 0 h): 0.36
Absorbance, formation of formazan dyes (Means) ([2]; 1 h): 0.42
Absorbance, formation of formazan dyes (Means) ([2]; 2 h): 0.41
Absorbance, formation of formazan dyes (Means) ([2]; 3 h): 0.43
Absorbance, formation of formazan dyes (Means) ([2]; 4 h): 0.43
Absorbance, formation of formazan dyes (Means) ([2]; 6 h): 0.48
Absorbance, formation of formazan dyes (Means) ([2]; 8 h): 0.59
Absorbance, formation of formazan dyes (Means) ([2]; 10 h): 0.63
Absorbance, formation of formazan dyes (Means) ([2]; 12 h): 0.66
conversion into colored formazan dyes in assay buffer containing 1-methoxy PMS ([2]; control buffer, absence of malate (TABLE 21) or presence of malate (TABLE 22)): slowly catalyze the conversion of tetrazolium salts into colored formazan dyes
reduction to formazan dyes by pooled oral lavage (oral lavage; pooled oral lavage of high bleeder group, diaphorase, no added malate (TABLE 11)): changed to formazan dyes in a significant amount
Absorbance, formation of formazan dyes (Means) ([3]; 0 h): 2.33
Absorbance, formation of formazan dyes (Means) ([3]; 1 h): 2.41
Absorbance, formation of formazan dyes (Means) ([3]; 2 h): 2.44
Absorbance, formation of formazan dyes (Means) ([3]; 3 h): 2.47
Absorbance, formation of formazan dyes (Means) ([3]; 4 h): 2.27
Absorbance, formation of formazan dyes (Means) ([3]; 6 h): 2.38
Absorbance, formation of formazan dyes (Means) ([3]; 8 h): 2.41
Absorbance, formation of formazan dyes (Means) ([3]; 10 h): 2.45
Absorbance, formation of formazan dyes (Means) ([3]; 12 h): 2.40
